Patent US20110015162A1, “15,16-Methylene-17-hydroxy-19-nor-21-carboxylic acid-steroid Y-lactone derivative, use thereof and medicinal products containing the derivative” (Bayer Schering Pharma Aktiengesellschaft, priority 2007, published 2011)
Like-named read-outs stand apart in the source and are kept apart here.

How the values were obtained:
androgen receptor = target: T1, androgen receptor (Homo sapiens, UniProt P10275); assay: Androgenic/antiandrogenic action by transactivation test (PC3 reporter cells); format: cell-based; parameters: expressed in transfected cells; host or cells: PC3 cells
T1 sequence (P10275 1-920): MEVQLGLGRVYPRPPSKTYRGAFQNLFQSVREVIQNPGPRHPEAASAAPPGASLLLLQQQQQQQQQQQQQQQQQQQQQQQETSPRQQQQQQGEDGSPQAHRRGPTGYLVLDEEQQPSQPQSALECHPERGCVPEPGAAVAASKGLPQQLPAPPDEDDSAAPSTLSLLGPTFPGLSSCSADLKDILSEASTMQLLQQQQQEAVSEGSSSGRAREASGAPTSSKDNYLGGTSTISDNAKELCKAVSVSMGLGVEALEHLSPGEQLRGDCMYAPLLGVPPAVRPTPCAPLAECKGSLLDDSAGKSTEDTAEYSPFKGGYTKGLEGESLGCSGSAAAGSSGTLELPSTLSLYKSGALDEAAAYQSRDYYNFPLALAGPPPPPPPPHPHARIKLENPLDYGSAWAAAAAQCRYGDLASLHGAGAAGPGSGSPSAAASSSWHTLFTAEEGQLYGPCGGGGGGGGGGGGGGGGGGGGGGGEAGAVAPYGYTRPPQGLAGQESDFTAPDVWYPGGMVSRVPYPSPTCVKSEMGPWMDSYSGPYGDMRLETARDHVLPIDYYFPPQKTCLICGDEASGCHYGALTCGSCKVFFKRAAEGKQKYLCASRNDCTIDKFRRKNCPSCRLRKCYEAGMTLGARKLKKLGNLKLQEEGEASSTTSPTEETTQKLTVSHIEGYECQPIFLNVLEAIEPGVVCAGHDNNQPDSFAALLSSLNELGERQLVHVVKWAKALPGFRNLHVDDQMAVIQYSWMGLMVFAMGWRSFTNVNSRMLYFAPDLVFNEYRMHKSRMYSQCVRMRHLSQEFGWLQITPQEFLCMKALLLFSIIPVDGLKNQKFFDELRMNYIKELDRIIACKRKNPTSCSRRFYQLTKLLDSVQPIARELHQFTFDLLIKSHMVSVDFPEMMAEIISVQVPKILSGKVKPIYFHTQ
Description: The test compounds were added eight hours later, and the cells were incubated with the compounds for 16 hours. The tests were carried out in triplicate. At the end of incubation the medium containing the effector was removed and replaced with lysis buffer. After luciferase assay substrate (Promega, #E1501) had been added, the 96-well plates were then put in a microplate luminometer (Pherastar, BMG Labtech), and the luminescence was measured. The IC50 values were evaluated using software for calculating dose-effect relations.
6. Determination of Androgenic/Antiandrogenic Action by Means of Transactivation Tests:
The androgenic/antiandrogenic action of the test substances was determined as for the transactivation tests described above.
The following modifications were made: In this case reporter cell lines were used (PC3 cells) that express the androgen receptor, and a reporter construct that contains luciferase under the control of a steroid hormone-responsive promoter.
For determination of the antiandrogenic efficacy, 0.05 nM R1881 was added to the cells, in order to achieve almost maximum stimulation of the reporter gene.

[1] = target: T2, fusion protein from the PR-ligand-binding domain and a Gal4-transactivation domain (Homo sapiens, UniProt P06401); assay: Progestational action by transactivation test (CHO K1 reporter cells); format: cell-based; conditions: for Emax: read-out: Progesterone receptor Agonism efficacy
T2 construct: expressed in transfected cells; host or cells: CHO K1 cells, stably transfected
Summary of the method: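 Progestational activity was measured in CHO K1 reporter cells stably expressing a fusion of the progesterone receptor ligand-binding domain with a Gal4-transactivation domain, plus a luciferase reporter under a Gal4-responsive promoter. Cells were plated at 4×10^4 per well in white 96-well plates with 3% DCC-FCS medium. Compounds were added eight hours later for 16 hours in triplicate. Luminescence was read after lysis and addition of luciferase substrate.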

progesterone receptor = target: T3, progesterone receptor (Homo sapiens, UniProt P06401); assay: Progesterone receptor binding test; conditions: for Progesterone receptor (PR) Competition factor: CF 1 = affinity of progesterone, CF >1 lower affinity, <1 higher affinity; for CF PR/CF MR: ratio of competition factors CF(PR) and CF(MR)
T3 construct: made in house; host or cells: Hi5 insect cells (cytosol)
T3 sequence (P06401 1-933): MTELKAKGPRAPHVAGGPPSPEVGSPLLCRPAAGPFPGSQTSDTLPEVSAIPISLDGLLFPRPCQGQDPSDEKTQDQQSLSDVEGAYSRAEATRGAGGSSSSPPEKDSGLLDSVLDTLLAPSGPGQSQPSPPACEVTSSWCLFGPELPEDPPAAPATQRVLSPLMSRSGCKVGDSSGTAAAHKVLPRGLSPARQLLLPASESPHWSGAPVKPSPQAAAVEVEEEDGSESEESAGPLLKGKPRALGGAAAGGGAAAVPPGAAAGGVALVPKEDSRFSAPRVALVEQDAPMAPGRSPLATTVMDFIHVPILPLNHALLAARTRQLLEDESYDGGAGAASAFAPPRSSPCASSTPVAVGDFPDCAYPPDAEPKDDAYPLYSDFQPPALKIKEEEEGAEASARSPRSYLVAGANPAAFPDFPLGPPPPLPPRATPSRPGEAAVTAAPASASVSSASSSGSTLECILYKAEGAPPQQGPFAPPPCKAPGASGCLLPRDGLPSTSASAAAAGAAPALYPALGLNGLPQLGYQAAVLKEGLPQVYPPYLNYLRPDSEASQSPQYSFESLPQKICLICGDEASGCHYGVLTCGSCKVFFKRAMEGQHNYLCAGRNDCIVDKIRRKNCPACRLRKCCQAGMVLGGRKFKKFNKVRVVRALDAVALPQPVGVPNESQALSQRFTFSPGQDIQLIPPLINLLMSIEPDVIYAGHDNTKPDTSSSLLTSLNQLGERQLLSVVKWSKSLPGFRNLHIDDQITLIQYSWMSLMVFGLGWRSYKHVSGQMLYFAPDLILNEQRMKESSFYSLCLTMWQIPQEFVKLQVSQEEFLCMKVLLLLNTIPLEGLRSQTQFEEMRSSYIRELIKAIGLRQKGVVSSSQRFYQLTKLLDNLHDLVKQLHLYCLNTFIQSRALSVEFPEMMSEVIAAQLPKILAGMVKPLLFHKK
Description: 1. Progesterone Receptor Binding Test:
Using cytosol from progesterone receptor-expressing insect cells (Hi5), competitive binding to the progesterone receptor was determined from the ability to displace ^3H-progesterone as reference substance from the receptor.

[2] = PC-3, read-out: Androgen receptor Agonism efficacy
[3] = PC-3, read-out: Androgen receptor Antagonism efficacy

T2 sequence (P04386 1-147 partner limits assumed, one chain of several): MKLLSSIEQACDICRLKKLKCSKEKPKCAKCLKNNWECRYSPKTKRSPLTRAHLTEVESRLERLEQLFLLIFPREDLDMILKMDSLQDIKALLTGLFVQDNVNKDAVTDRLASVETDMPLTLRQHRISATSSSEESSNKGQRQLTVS

Structure (SMILES) | EC50 (androgen receptor) [nM] | Emax (androgen receptor; [2]) [%] | Emax (androgen receptor; [3]) [%] | EC50 [1] [nM] | Emax ([1]; CHO-K1, 16 h) [%] | IC50 (progesterone receptor) [nM] | Progesterone receptor (PR) Competition factor (progesterone receptor) | CF PR/CF MR (progesterone receptor) | IC50 (androgen receptor) [nM] | EC50 ([1]; CHO K1 reporter cells, 16 hours incubation, read-out: Progesterone receptor Agonism EC50) [nM] | Emax ([1]; CHO K1 reporter cells, 16 hours incubation) [%] | IC50 (progesterone receptor; displacement of 3H-progesterone, cytosol from PR-expressing insect cells (Hi5), read-out: Progesterone receptor (PR) IC50) [nM]
C=C[C@@H]1CC2=CC(=O)CC[C@@H]2[C@H]2CC[C@@]3(C)[C@@H]([C@H]4C[C@H]4[C@@]34C=CC(=O)O4)[C@@H]21 [Example 16A, 17β-Hydroxy-7α-vinyl-15α,16α-methylene-19-nor-17α-pregna-4;20(Z)-dien-3-one-21-carboxylic acid γ-lactone] | 12 | 62.6 | 5 | 140 | 59.3 | 85 | 3.76 | 1.88 |  |  |  | 
C[C@]12CC[C@H]3[C@H]([C@@H]1[C@H]1C[C@H]1[C@@]21C=CC(=O)O1)[C@H](C1CC1)CC1=CC(=O)CC[C@@H]13 [Example 17A, 17β-Hydroxy-7α-cyclopropyl-15α,16α-methylene-19-nor-17α-pregna-4,20(Z)-dien-3-one-21-carboxylic acid γ-lactone] | 23 | 40.8 | 33.7 | 970 | 71.8 | 280 | 12.24 | 4.71 | 11 |  |  | 
C[C@]12CC[C@H]3[C@@H](CCC4=C(Cl)C(=O)CC[C@@H]43)[C@@H]1[C@H]1C[C@H]1[C@@]21C=CC(=O)O1 [Example 18, 4-Chloro-17β-hydroxy-15α,16α-methylene-19-nor-17α-pregna-4,20(Z)-dien-3-one-21-carboxylic acid γ-lactone] | 12 | 71.5 | 5 | 810 | 25.7 | 400 | 17.24 | 0.49 |  |  |  | 
C[C@]12CC[C@H]3[C@@H](C[C@@H](CO)C4=CC(=O)CC[C@@H]43)[C@@H]1[C@@H]1C[C@@H]1[C@@]21C=CC(=O)O1 [Example 21, 17β-Hydroxy-6β-hydroxymethylene-15β,16β-methylene-19-nor-17α-pregna-4,20(Z)-dien-3-one-21-carboxylic acid γ-lactone] |  | 5 | 15.7 |  |  |  | 159.27 |  | 500 | 780 | 21 | 4800
C[C@]12CC[C@H]3[C@@H](CC4(CC4)C4=CC(=O)CC[C@@H]43)[C@@H]1[C@@H]1C[C@@H]1[C@@]21C=CC(=O)O1 [Example 22, 6,6-(1,2-Ethanediyl)-17β-hydroxy-15β,16β-methylene-19-nor-17α-pregna-4,20(Z)dien-3-one-21-carboxylic acid γ-lactone] | 1.7 | 98.6 | 5 | 1.1 | 126 | 30 | 1.04 | 1.30 |  |  |  | 
C[C@@H]1CC2=CC(=O)CC[C@@H]2[C@H]2CC[C@@]3(C)[C@@H]([C@@H]4C[C@@H]4[C@@]34C=CC(=O)O4)[C@@H]21 [Example 23A, 17β-Hydroxy-7α-methyl-15β,16β-methylene-19-nor-17α-pregna-4,20(2)-dien-3-one-21-carboxylic acid γ-lactone] | 19 | 63.6 | 5 | 21 | 140 | 120 | 3.79 | 1.99 |  |  |  | 
CC[C@@H]1CC2=CC(=O)CC[C@@H]2[C@H]2CC[C@@]3(C)[C@@H]([C@@H]4C[C@@H]4[C@@]34C=CC(=O)O4)[C@H]12 [Example 24A, 7α-Ethyl-17β-hydroxy-15β,16β-methylene-19-nor-17α-pregna-4,20(Z)-dien-3-one-21-carboxylic acid γ-lactone] | 52 | 36.8 | 22.5 | 140 | 42.7 | 1300 | 41.55 | 21.87 | 11 |  |  | 
